Experiments:
[1] = system: cytokine levels in differentiated THP-1 cells treated with LPS; assay: THP-1 human cellular LPS cytokine assay, four independent experiments, per cytokine; type: cell-based; conditions: LPS 20 ng/mL
[2] = system: cytokines induced in mice by LPS; assay: Mouse LPS cytokine model, Example 6A Study 3, 1:1 CBD:CBDA in MCT oil; type: in vivo; conditions: 0.5 mg/kg
Protocol: (§1) A series of experiments using a mouse LPS cytokine animal model were performed. In the mouse LPS cytokine animal model, mice were injected with LPS, which induced the immune response shortly after the mice were injected with one of the potential anti-inflammatory compounds under evaluation (the “test compound”). The efficacy of the test compound was evaluated based on its ability to reduce expression levels of inflammatory cytokines that were elevated due to the immune response. The test compounds included a cannabinoid, an omega fatty acid, and a cannabinoid-omega fatty acid composition.
(§2) The mice were intraperitoneally injected with 0.1 mL of the test compound. One hour later, the mice were intraperitoneally injected with 0.1 mL of LPS in phosphate buffered saline (PBS). Four hours later, a heart puncture was performed and the blood was allowed to clot to generate serum. 0.1 mL of the serum was diluted 1:2 with PBS and stored at −80° C. The serum was then sent to a laboratory where a mouse cytokine array/chemokine array 31-plex (MD31) analysis was performed that analyzed the expression levels of the 32 cytokines/chemokines listed in Table 9, above.
(§3) For each considered test compound, the ability of the test compound to suppress each inflammatory cytokine was calculated by determining the percent suppression.
32 female C57BL/6 mice that weighed approximately 20 g each were allowed to acclimate for one week with unlimited access to food and water. On the day of the study, the mice were weighed and split into eight groups of four mice each so that the average weight of each group was as close as possible to each other.
The 1:1 CBD:CBDA test compounds were dosed at 5 mg/kg or 0.1 mg per 20 g mouse, 1.67 mg/kg or 0.033 mg per 20 g mouse, 0.5 mg/kg or 0.01 mg per 20 g mouse, 0.167 mg/kg or 0.0033 mg per 20 g mouse and 0.05 mg/kg or 0.001 mg per 20 g mouse. The test compounds were prepared as 1 mg/mL, 0.33 mg/mL, 0.1 mg/mL, 0.033 mg/mL and 0.01 mg/mL solutions in MCT oil for a 0.1 mL injection. […] The LPS was dosed at 0.1 mg/kg or 0.002 mg per 20 g mouse. The LPS was prepared as a 0.02 mg/mL solution in PBS for a 0.1 mL injection.

[3] = system: cytokines induced in mice by LPS; assay: Mouse LPS cytokine model, Example 6C Study 3, omega fatty acids with or without 0.25 mg/kg 1:1 CBD:CBDA; type: in vivo
Protocol: as §1, §2, §3
In this study, the effects of combining 1:1 CBD:CBDA with anti-inflammatory omega unsaturated fatty acids using the mouse LPS cytokine animal model were examined.
40 female C57BL/6 mice that weighed approximately 20 g each were allowed to acclimate for one week with unlimited access to food and water. On the day of the study, the mice were weighed and split into ten groups of four mice each so that the average weight of each group was as close as possible to each other. […] (9) LPS plus 37.50 mg omega fatty acids (0.1 mL injection of 375.00 mg/mL omega fatty acids diluted in MCT oil, followed 1 hour later by a 0.1 mL injection of LPS in PBS); and (10) LPS plus 37.50 mg omega fatty acids/0.005 mg 1:1 CBD:CBDA (0.1 mL injection of 375.00 mg/mL omega fatty acids/0.05 mg/mL 1:1 CBD:CBDA diluted in MCT oil, followed 1 hour later by a 0.1 mL injection of LPS in PBS).
24 out of the 32 analyzed cytokines were induced two-fold by LPS. Because the purpose of this experiment was to evaluate the effectiveness of combining 1:1 CBD:CBDA and the anti-inflammatory omega fatty acids, only cytokines that could be suppressed by one of the anti-inflammatory agents used in this study were considered. 24 out of the 24 cytokines whose expression level was induced-two fold or greater by LPS met these criteria.

[4] = system: cytokine levels in differentiated THP-1 cells treated with LPS; assay: THP-1 human cellular LPS cytokine assay, three independent experiments, total averaged suppression; conditions: Homo sapiens, THP-1, 4 h, read-out: % Cytokine Suppression (total averaged)
Protocol: Cells were seeded onto 24-, or 12-well plates and incubated for 48 hours to 72 hours to allow for differentiation. […] Supernatants were collected for quantification of human cytokine levels to assess the cytokine response. Cells remaining after the supernatant collection were tested to ensure they had at least 90% viability as determined by Alamar Blue assays. To conduct the Alamar Blue assays, supernatants were replaced with culture medium containing 1× Alamar Blue reagent and incubated overnight. Cell viability was assessed by measuring relative fluorescent units (RFU) on the SpectraMax M2e microplate reader (Molecular Devices Inc., Sunnyvale, Calif., USA) at Excitation 560 nm and Emission 590 nm. Controls included untreated cells with DMSO at the same concentration as the treated cells, LPS stimulated cells with DMSO at the same concentration as the treated cells and LPS stimulated cell with the various treatments. The levels of 42 of the most common human cytokines (Eve Technologies, Calgary, Canada Table 6) were determined by multi-plex analysis.
For this reason, the level of cytokine suppression was determined for each cytokine by each cannabinoid that was tested and the total averaged suppression for each cannabinoid was determined by dividing the total suppression by the number of the cytokines that were analyzed.

[5] = 0.01 mg dexamethasone in MCT oil

Compound: C[C@@H]1C[C@H]2[C@@H]3CCC4=CC(=O)C=C[C@]4(C)[C@@]3(F)[C@@H](O)C[C@]2(C)[C@@]1(O)C(=O)CO [Dexamethasone, dexamethasone]
- EGF suppression ([1]; 2 µM): 0.74%
- FGF-β suppression ([1]; 2 µM): −18.23%
- Flt-3L suppression ([1]; 2 µM): 57.45%
- IFNγ suppression ([1]; 2 µM): 56.19%
- IL-1α suppression ([1]; 2 µM): 77.5%
- IL-1β suppression ([1]; 2 µM): 67.84%
- IL-4 suppression ([1]; 2 µM): 56.32%
- IL-6 suppression ([1]; 2 µM): 90.56%
- IL-7 suppression ([1]; 2 µM): 64.36%
- IL-10 suppression ([1]; 2 µM): 74.07%
- IL-12 p70 suppression ([1]; 2 µM): 1.37%
- IL-15 suppression ([1]; 2 µM): 29.2%
- IL-18 suppression ([1]; 2 µM): −15.38%
- IP-10 suppression ([1]; 2 µM): 64.85%
- MCP-1 suppression ([1]; 2 µM): 83.18%
- MIP-1β suppression ([1]; 2 µM): 73.58%
- TNFα suppression ([1]; 2 µM): 45.33%
- TNFβ suppression ([1]; 2 µM): 72.69%
- Average cytokine suppression [1]: 50.17%
- AVERAGE SUPPRESSION [2]: 34.65%
- Eotaxin suppression [2]: 55.51%
- IFNγ suppression [2]: 14.14%
- IL-1β suppression [2]: 61.12%
- IL-2 suppression [2]: −15.63%
- IL-6 suppression [2]: 78.65%
- IL-7 suppression [2]: 12.53%
- IL-9 suppression [2]: 5.23%
- IL-10 suppression [2]: 46.83%
- IL-12 p70 suppression [2]: −46.46%
- IL-12β p40 suppression [2]: 29.69%
- IL-13 suppression [2]: 21.00%
- IL-17 suppression [2]: 53.81%
- IP-10 suppression [2]: 38.48%
- KC suppression [2]: 86.96%
- LIF suppression [2]: 35.14%
- MCP-1 suppression [2]: 69.72%
- MIG suppression [2]: 37.08%
- MIP-1α suppression [2]: 48.38%
- MIP-1β suppression [2]: 32.24%
- MIP-2 suppression [2]: 41.28%
- RANTES suppression [2]: 32.46%
- TNF-α suppression [2]: 53.09%
- VEGF suppression [2]: 66.07%
- Percent suppression of elevated cytokine levels, Eotaxin [3, 5]: 7.26%
- Percent suppression of elevated cytokine levels, IFNγ [3, 5]: 44.52%
- Percent suppression of elevated cytokine levels, IL-1β [3, 5]: 35.53%
- Percent suppression of elevated cytokine levels, IL-2 [3, 5]: −9.46%
- Percent suppression of elevated cytokine levels, IL-6 [3, 5]: 85.95%
- Percent suppression of elevated cytokine levels, IL-7 [3, 5]: 96.66%
- Percent suppression of elevated cytokine levels, IL-10 [3, 5]: 57.41%
- Percent suppression of elevated cytokine levels, IL-12β p40 [3, 5]: 54.79%
- Percent suppression of elevated cytokine levels, IL-12β p70 [3, 5]: −51.07%
- Percent suppression of elevated cytokine levels, IL-13 [3, 5]: 11.39%
- Percent suppression of elevated cytokine levels, IL-15 [3, 5]: −13.42%
- Percent suppression of elevated cytokine levels, IL-17 [3, 5]: 63.75%
- Percent suppression of elevated cytokine levels, IP-10 [3, 5]: 42.02%
- Percent suppression of elevated cytokine levels, KC [3, 5]: 60.10%
- Percent suppression of elevated cytokine levels, LIF [3, 5]: 47.18%
- Percent suppression of elevated cytokine levels, MCP-1 [3, 5]: 57.29%
- Percent suppression of elevated cytokine levels, MIG [3, 5]: −0.29%
- Percent suppression of elevated cytokine levels, MIP-1α [3, 5]: 47.13%
- Percent suppression of elevated cytokine levels, MIP-1β [3, 5]: 34.67%
- Percent suppression of elevated cytokine levels, MIP-2 [3, 5]: 37.57%
- Percent suppression of elevated cytokine levels, RANTES [3, 5]: 37.87%
- Percent suppression of elevated cytokine levels, TNF-α [3, 5]: 51.43%
- Percent suppression of elevated cytokine levels, VEGF [3, 5]: 75.98%
- Percent suppression of elevated cytokine levels, AVERAGE SUPPRESSION ([3]; 0.01 mg dexamethasone in MCT oil, average of 24 cytokines): 37.59%
- decrease in the cytokine expression levels (average) ([3]; 0.01 mg per mouse): 37.59%
- inhibition at 2 µM [4]: 51%
